We go through 6 molecules from patent US6630462B2, “Delta agonist analgesics” (Adolor Corporation, priority 2000, dated 2003).

For series [1], the target named is cloned human κ opioid receptor (Homo sapiens, UniProt P41145). The experiment in a line: Opioid receptor binding assay, [3H]diprenorphine, CHO cell membranes. The conditions noted are these: for inhibition at 10 µM: [3H]diprenorphine binding. Here is the method:
(§1) Chinese hamster ovary (CHO) cells are stably transfected with the cloned human μ, κ, or δ opioid receptors. Cells are harvested by scraping them from the culture flask, centrifuging them at 1000×g for 10 min, resuspending them in buffer A and centrifuging again to remove growth medium. The cells are resuspended again in buffer A and homogenized for 30 seconds using a Polytron homogenizer (Brinkmann) at setting 8. The homogenate is centrifuged at 48,000×g for 10 min at 4° C. The pellets are resuspended at 1 mg of protein per mL of buffer A and aliquots stored at −80° C. until use. Buffer A is 50 mM Tris HCl, pH 7.8, containing 1.0 mM EGTA, 5 mM MgC12, 10 mg/mL leupeptin, 10 mg/mL pepstatin A, 200 mg/mL bacitracin, and 0.5 mg/mL aprotinin.
(§2) Receptor binding assays contain 0.4-1.0 nM [3H]diprenorphine (˜40,000 dpm), test compound as appropriate, and membrane preparation in a total volume of 0.5 mL buffer A. After incubation at room temperature for one hour, the samples are filtered through Whatman GF/B filters that have been presoaked in a solution of 0.5% (w/v) polyethylenimine and 0.1% (w/v) bovine serum albumin in water. The filters are rinsed 4×1 mL with cold 50 mM Tris HCl, pH 7.8 and radioactivity remaining on the filters is determined by scintillation spectroscopy. Ki values are determined by Cheng-Prusoff corrections of IC50 values derived from nonlinear regression fits of 12 point titration curves using the program Prism© (GraphPad Software, San Diego, Calif.).

For series [2], the target named is cloned human μ opioid receptor (Homo sapiens, UniProt P35372). Described as above. As to conditions: for inhibition at 10 µM: read-out: % Inhibition @ 10 μM, μ. Here is the method:
as §1, §2

In series [3] the target is cloned human δ opioid receptor (Homo sapiens, UniProt P41143). The description is as above. The conditions noted are these: for Ki: cloned human δ receptor in CHO membranes, read-out: Ki, inhibition of [3H]diprenorphine binding, δ. Here is the method: as §1
Chain of cloned human δ opioid receptor (P41143 whole entry): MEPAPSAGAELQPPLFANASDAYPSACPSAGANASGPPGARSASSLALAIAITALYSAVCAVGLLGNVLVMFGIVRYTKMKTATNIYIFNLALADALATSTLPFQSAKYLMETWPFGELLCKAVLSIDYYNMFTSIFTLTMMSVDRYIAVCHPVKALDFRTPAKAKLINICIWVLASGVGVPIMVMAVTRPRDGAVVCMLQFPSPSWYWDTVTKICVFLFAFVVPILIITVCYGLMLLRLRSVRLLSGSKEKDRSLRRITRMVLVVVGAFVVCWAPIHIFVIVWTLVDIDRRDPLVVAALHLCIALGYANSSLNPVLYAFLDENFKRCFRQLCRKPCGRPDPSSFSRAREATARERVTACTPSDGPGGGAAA
The filters are rinsed 4×1 mL with cold 50 mM Tris HCl, pH 7.8 and radioactivity remaining on the filters is determined by scintillation spectroscopy. Ki values are determined by Cheng-Prusoff corrections of IC50 values derived from nonlinear regression fits of 12 point titration curves using the program Prism© (GraphPad Software, San Diego, Calif.).

For a further series, the system named is seizures in mice. The experiment in a line: Drug-induced seizures. The series is classed as in vivo. The conditions noted are these: for induction of seizures: s.c., doses up to 30 mg/kg, observed 30 min. The protocol: Mice are injected s.c. with either vehicle (1:1:8, DMSO: Cremophor: Saline), clozapine (3-30 mg/kg), or DMCLZ (3-30 mg/kg). Immediately after injection, the mice are placed in individual plastic cages (30×16×12 cm) lined with bedding. The mice are observed for gross behavioral signs for 30 min, and the presence or absence of seizures is noted.
To determine the role of δ opioid receptors in mediating clozapine-induced seizures, mice are pretreated with either saline or the selective δ antagonist naltrindole (NTI) (1 mg/kg, s.c.) 20 min prior to treatment with vehicle or 30 mg/kg of clozapine.

Another series has as its target human δ opioid receptor (Homo sapiens, UniProt P41143). The experiment in a line: Opioid receptor-mediated stimulation of [35S]GTPγS binding. The series is classed as biochemical. Here is the method:
Chinese hamster ovary (CHO) cells are stably transfected with the cloned human μ, κ, or δ opioid receptors. Cells are harvested by scraping them from the culture flask, centrifuging them at 1000×g for 10 min, resuspending them in buffer A and centrifuging again to remove growth medium. The cells are resuspended again in buffer A and homogenized for 30 seconds using a Polytron homogenizer (Brinkmann) at setting 8. The homogenate is centrifuged at 48,000×g for 10 min at 4° C. The pellets are resuspended at 1 mg of protein per mL of buffer A and aliquots stored at −80° C. until use. […]
Assays contain 80-100 pM [35S]GTPγS, […], 75 mM NaCl, 15 mM MgCl2, 1.0 mM EGTA, 2.1 mM dithiothreitol, 10 mg/mL leupeptin, 10 mg/mL pepstatin A, 200 mg/mL bacitracin, 0.5 mg/mL aprotinin, […] of membrane protein and agonist as appropriate in a final total volume of […] of 50 mM Tris HCl, pH 7.8 in 96 well Basic Flashplates® (NEN). After incubation for one hour at room temperature, the samples are centrifuged at 800×g at 4° C. for 5 min and the radioactivity (cpm) bound to the membranes is determined by scintillation spectrometry.
To determine the IC50 value, which is the concentration to give half-maximal inhibition of agonist-stimulated [35S]GTPγS binding, the cpm of [35S]GTPγS bound in the presence of a fixed concentration of agonist and various concentrations of antagonist is measured. […]

Series [4] relates to formalin-induced flinching, late phase. Description: Formalin-induced flinching. The series is classed as in vivo, Sprague-Dawley rats. The conditions noted are these: rat, 300 μg i.paw, late phase 20-35 min after formalin. Here is the method: Male Sprague-Dawley rats weighing 80-120 g are injected s.c. with […] of a 5% formalin solution into the dorsal surface of the right hind paw (i.paw). The flinching behavior is quantified by counting the number of responses that occur during the tonic (late) phase of pain, lasting from 20-35 min after formalin injection. The test compounds are injected i.paw 10 min prior to the formalin injection. The mean percent antagonism (%A) of formalin-induced flinching for drug treated, formalin injected rats is calculated according to the following formula: %A=(Mean formalin response−Mean saline response)−Individual response×100/Mean formalin response−Mean saline response The mean formalin response is the mean number of flinches in rats treated with vehicle prior to the formalin injection. The mean saline response is the mean number of flinches in rats treated with […] saline instead of formalin.

Series [5] relates to acetic acid-induced writhing. Description: Acetic acid-induced writhing. The series is classed as in vivo, ICR mice. As to conditions: sc; mouse, s.c., 15 min before acetic acid. Here is the method:
Male ICR mice weighing 20-25 g are injected s.c. with either vehicle or test compound 15 min before they are injected intraperitoneally with 0.6% acetic acid. At 5 min after treatment with acetic acid, the number of writhes is counted for 10 min. Dose response curves are expressed as the percent inhibition of acetic acid induced writhing, when compared to the mean number of writhes observed in vehicle-treated mice.
The mean percent inhibition (%I) of acetic acid-induced writhing for drug-treated rats is calculated according to the following formula: [formula]
The mean individual response is the mean number of writhes in rats treated with test compound. The mean vehicle response is the mean number of writhes in rats treated with vehicle.

The conditions of series [6]: human patients; cited from earlier work.
Where [7] appears, read: 10 μM, [3H]diprenorphine binding.

Structures are written as SMILES. Read-outs that look alike come from different tables or passages of the source.

Chain of cloned human μ opioid receptor (P35372 whole entry): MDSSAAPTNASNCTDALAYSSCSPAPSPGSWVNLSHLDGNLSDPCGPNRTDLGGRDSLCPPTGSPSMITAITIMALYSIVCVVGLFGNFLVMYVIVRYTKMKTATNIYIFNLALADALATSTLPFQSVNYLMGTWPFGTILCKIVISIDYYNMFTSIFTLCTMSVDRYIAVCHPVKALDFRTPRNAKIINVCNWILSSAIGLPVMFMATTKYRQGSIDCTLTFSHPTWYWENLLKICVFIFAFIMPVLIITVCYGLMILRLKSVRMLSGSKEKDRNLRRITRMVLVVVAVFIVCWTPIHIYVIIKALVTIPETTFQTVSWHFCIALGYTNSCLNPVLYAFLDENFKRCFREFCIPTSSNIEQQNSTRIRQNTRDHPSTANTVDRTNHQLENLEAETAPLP
Chain of cloned human κ opioid receptor (P41145 whole entry): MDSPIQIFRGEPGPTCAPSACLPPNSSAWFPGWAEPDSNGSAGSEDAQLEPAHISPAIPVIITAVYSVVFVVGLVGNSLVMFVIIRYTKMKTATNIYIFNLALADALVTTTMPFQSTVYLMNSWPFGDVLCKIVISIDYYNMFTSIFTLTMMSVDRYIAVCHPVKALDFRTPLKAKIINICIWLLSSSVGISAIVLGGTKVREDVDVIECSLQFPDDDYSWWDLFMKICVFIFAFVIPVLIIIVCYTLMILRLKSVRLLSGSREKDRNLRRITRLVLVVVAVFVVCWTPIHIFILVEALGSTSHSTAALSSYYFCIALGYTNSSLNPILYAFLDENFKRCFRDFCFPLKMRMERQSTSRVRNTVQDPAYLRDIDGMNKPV
Chain of human δ opioid receptor (P41143 whole entry): as the sequence (P41143 whole entry) above

Regarding `Clc1ccc2c(c1)C(N1CCNCC1)=Nc1ccccc1O2` [Amoxapine], the inhibition at 10 µM in series [1] came out at 25%; in series [2] (setting [7]), 18%.

With `C=CCN1C[C@H](C)N([C@H](c2ccc(C(=O)N(CC)CC)cc2)c2cccc(O)c2)C[C@H]1C` [BW373U86], the inhibition constant (Ki) was 149 nM in series [1] (cloned human κ receptor in CHO membranes, read-out: Ki, inhibition of [3H]diprenorphine binding, κ) and 96 nM in series [2] (cloned human μ receptor in CHO membranes, read-out: Ki, inhibition of [3H]diprenorphine binding, μ).

As to `CN1CCN(C2=Nc3cc(Cl)ccc3Nc3ccccc32)CC1` [Clozapine, 8-chloro-11-(4-methyl-1-piperazinyl)-5H-dibenzo[b,e][1,4]-diazepine], the Ki in series [3] stood at 928 nM. Besides, the inhibition at 10 µM worked out at 11% in series [1] and 17% in series [2] (setting [7]). The “blockade of clozapine-induced seizures by the selective δ antagonist naltrindole” value with seizures in mice (naltrindole 1 mg/kg s.c. 20 min before 30 mg/kg clozapine) is “not blocked”.

Regarding `CN1CCN(C2=Nc3ccccc3Oc3ccc(Cl)cc32)CC1` [Loxapine], the values for the inhibition at 10 µM in series [3] (setting [7]), in series [1] and in series [2] (setting [7]) were 26%, 27% and 0%, respectively.

`Clc1ccc2c(c1)N=C(N1CCNCC1)c1ccccc1N2` [N-desmethylclozapine]: the inhibition constant (Ki) in series [3] was found to be 24 nM. Also, the inhibition at 10 µM in series [1] was 64%; in series [2] (setting [7]), 17%. In addition, on human δ opioid receptor, the concentration for a half-maximal effect (EC50) came to 290 nM. The “agonist character at the human δ opioid receptor” value on human δ opioid receptor (FIG. 3) is on record as “full agonist”. In addition, the “percent antagonism (% A) of formalin-induced flinching” value in series [4] was found to be 56 % A. The molecule also came in with a median effective dose (ED50) in series [5] of 2.2 mg/kg. The induction of seizures entry is “does not induce seizures” in the series with seizures in mice and “does not produce seizures” in the series on seizures in mice (listed as DMCLZ). Besides, the plasma level in series [6] is given as about 620 nM.

For `C=CCN1C[C@H](C)N([C@H](c2ccc(C(=O)N(CC)CC)cc2)c2cccc(OC)c2)C[C@H]1C` [SNC-80], the inhibition at 1 µM in series [1] (read-out: % Inhibition @ 1.0 μM, κ) was 2%. Further, the inhibition at 10 µM in series [2] came to 5.5%.
